Measurements from ChEMBL document CHEMBL5055676, “Novel methyllycaconitine analogues selective for the α4β2 over α7 nicotinic acetylcholine receptors” (Bioorg Med Chem, 2021).
The source made the active and inactive calls. No cut-off for these calls is given here.

How the values were obtained:
[1] = molecular target: T1, Neuronal acetylcholine receptor; alpha4/beta2 (Homo sapiens, UniProt P17787+P43681); assay: Inhibition of human (alpha4)3(beta2)2 nAChR expressed in Xenopus laevis oocytes assessed as inhibition of acetylcholine-induced current response at 10 uM pretreated for 30 secs followed by co-application with acetylcholine measured at holding potential of -60 mV by two-electrode voltage-clamp method; assay type: cell-based; conditions: Oocyte, time 30.0 sec
T1 sequence (P17787 whole entry): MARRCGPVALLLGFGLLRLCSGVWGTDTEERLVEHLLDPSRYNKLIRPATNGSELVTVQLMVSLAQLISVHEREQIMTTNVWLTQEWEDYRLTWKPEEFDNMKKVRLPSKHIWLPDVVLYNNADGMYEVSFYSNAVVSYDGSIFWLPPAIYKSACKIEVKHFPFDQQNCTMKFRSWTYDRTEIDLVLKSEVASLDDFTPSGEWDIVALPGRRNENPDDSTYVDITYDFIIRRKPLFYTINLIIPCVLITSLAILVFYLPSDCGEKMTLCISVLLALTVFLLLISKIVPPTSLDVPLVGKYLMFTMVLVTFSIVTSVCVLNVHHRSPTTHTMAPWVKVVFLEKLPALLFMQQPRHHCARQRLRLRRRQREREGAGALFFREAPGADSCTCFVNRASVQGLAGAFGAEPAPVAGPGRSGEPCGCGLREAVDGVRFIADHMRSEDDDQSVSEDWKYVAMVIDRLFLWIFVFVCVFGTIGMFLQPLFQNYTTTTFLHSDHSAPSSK
T1 sequence (P43681 whole entry): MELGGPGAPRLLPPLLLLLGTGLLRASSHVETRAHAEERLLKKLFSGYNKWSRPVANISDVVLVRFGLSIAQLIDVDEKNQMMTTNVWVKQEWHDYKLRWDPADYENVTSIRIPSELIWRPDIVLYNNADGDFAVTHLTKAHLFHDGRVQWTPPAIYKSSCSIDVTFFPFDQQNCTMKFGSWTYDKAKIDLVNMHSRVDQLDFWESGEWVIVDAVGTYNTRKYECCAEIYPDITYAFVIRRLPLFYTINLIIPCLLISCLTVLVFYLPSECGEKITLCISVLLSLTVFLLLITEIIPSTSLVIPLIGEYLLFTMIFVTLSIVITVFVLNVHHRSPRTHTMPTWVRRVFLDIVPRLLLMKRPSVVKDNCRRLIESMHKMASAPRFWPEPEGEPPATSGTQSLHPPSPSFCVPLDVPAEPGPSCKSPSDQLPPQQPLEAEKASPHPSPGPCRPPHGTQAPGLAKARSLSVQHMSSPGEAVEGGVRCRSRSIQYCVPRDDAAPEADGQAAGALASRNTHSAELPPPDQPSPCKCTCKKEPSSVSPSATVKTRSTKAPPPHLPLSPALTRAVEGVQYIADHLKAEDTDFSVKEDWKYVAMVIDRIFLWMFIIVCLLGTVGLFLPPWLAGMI

[2] = molecular target: T1, Neuronal acetylcholine receptor; alpha4/beta2; assay: Inhibition of human (alpha4)2(beta2)3 nAChR expressed in Xenopus laevis oocytes assessed as inhibition of acetylcholine-induced current response at 10 uM pretreated for 30 secs followed by co-application with acetylcholine measured at holding potential of -60 mV by two-electrode voltage-clamp method; assay type: cell-based; conditions: Oocyte, time 30.0 sec
[3] = molecular target: T1, Neuronal acetylcholine receptor; alpha4/beta2; assay: Inhibition of human (alpha4)3(beta2)2 nAChR expressed in Xenopus laevis oocytes assessed as inhibition of acetylcholine-induced current response in presence of 100 uM acetylcholine by two-electrode voltage-clamp method; assay type: cell-based; conditions: for logIC50: Oocyte
[4] = molecular target: T1, Neuronal acetylcholine receptor; alpha4/beta2; assay: Inhibition of human (alpha4)2(beta2)3 nAChR expressed in Xenopus laevis oocytes assessed as inhibition of acetylcholine-induced current response in presence of 3 uM acetylcholine by two-electrode voltage-clamp method; assay type: cell-based; conditions: for logIC50: Oocyte
[5] = molecular target: T1, Neuronal acetylcholine receptor; alpha4/beta2; assay: Non-competitive antagonist activity at human (alpha4)3(beta2)2 nAChR expressed in Xenopus laevis oocytes decrease in acetylcholine-induced maximum current with non-significant change in Ach potency at IC50 pretreated for 30 secs followed by co-application with acetylcholine measured at holding potential of -60 mV by two-electrode voltage-clamp method; assay type: cell-based; conditions: Oocyte, time 30.0 sec
[6] = molecular target: Neuronal acetylcholine receptor subunit alpha-7 (Rattus norvegicus, UniProt Q05941); assay: Inhibition of rat alpha7 nAChR expressed in Xenopus laevis oocytes assessed as inhibition of acetylcholine-elicited current response measured at holding potential of -60 mV by two-electrode voltage-clamp method; assay type: cell-based, Oocyte
Chain of Neuronal acetylcholine receptor subunit alpha-7 (Q05941 whole entry): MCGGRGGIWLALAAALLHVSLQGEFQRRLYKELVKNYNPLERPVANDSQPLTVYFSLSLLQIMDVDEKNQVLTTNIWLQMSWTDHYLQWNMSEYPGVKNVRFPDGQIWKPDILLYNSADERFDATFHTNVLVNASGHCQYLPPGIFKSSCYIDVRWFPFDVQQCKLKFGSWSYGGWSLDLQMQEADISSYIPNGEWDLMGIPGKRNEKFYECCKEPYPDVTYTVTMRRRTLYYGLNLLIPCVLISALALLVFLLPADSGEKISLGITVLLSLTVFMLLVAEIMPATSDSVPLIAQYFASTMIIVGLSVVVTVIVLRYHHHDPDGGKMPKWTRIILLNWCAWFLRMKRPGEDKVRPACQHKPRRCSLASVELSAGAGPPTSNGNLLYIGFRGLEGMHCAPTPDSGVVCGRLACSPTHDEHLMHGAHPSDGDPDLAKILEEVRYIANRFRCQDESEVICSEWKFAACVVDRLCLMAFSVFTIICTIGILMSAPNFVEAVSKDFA

[7] = molecular target: Neuronal acetylcholine receptor; alpha4/beta2 (Rattus norvegicus, UniProt P09483+P12390); assay: Inhibition of rat alpha4beta2 nAChR expressed in Xenopus laevis oocytes assessed as inhibition of acetylcholine-elicited current response measured at holding potential of -60 mV by two-electrode voltage-clamp method; assay type: cell-based, Oocyte
Chain of Neuronal acetylcholine receptor; alpha4/beta2 (Rattus norvegicus, UniProt P09483+P12390) (P09483 whole entry): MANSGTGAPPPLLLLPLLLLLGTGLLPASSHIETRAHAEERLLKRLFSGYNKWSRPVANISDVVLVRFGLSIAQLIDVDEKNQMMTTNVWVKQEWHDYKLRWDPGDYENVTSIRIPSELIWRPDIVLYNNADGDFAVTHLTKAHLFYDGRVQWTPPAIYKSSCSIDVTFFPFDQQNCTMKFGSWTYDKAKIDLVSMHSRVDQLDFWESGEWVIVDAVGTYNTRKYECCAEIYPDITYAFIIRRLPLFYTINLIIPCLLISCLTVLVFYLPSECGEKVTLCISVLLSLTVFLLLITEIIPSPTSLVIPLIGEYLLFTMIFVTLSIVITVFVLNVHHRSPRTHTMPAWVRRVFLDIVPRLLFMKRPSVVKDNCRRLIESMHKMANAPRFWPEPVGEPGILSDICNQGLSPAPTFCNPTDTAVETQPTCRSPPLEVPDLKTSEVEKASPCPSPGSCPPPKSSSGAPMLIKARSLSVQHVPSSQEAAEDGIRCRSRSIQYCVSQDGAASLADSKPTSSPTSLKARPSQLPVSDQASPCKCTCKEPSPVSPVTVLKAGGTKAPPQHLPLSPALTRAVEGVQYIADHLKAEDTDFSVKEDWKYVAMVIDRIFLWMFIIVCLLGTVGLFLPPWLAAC
Chain of Neuronal acetylcholine receptor; alpha4/beta2 (Rattus norvegicus, UniProt P09483+P12390) (P12390 whole entry): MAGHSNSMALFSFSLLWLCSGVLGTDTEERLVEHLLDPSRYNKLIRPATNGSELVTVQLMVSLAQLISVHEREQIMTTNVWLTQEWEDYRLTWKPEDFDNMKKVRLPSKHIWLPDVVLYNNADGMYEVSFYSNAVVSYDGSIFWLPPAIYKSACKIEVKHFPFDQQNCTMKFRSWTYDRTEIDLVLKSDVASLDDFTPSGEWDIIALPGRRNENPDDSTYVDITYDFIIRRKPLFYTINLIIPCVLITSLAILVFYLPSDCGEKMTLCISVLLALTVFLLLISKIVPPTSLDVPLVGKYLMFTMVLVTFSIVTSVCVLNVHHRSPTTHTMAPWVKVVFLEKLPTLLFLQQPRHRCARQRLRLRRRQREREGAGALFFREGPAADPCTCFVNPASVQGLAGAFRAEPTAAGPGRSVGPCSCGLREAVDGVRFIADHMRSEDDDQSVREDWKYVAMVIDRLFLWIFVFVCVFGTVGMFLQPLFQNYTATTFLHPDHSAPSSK

inhibition [1]	Compound	inhibition [2]	further results
60%	C=C1[C@@H]2CCC[C@@]1(COC(=O)c1ccccc1-c1ccnc(NC(C)=O)c1)CN(CC)C2	Active	–
Active	C=C1[C@@H]2CCC[C@@]1(COC(=O)c1ccccc1-c1cccnc1)CN(CC)C2	–	–
60%	C=C1[C@@H]2CCC[C@@]1(COC(=O)c1ccccc1-c1cncc(NC(C)=O)c1)CN(CC)C2	Active	–
Active	C=C1[C@@H]2CCC[C@@]1(COC(=O)c1ccccc1-c1ccncc1)CN(CC)C2	–	–
60%	C=C1[C@@H]2CCC[C@@]1(COC(=O)c1ccccc1-c1ccc(NC(C)=O)nc1)CN(CC)C2	Active	–
Active	C=C1[C@@H]2CCC[C@@]1(COC(=O)c1ccccc1-c1ccccc1)CN(CC)C2	–	–
Active	C=C1[C@@H]2CCC[C@@]1(COC(=O)c1ccccc1-c1ccc(NC(C)=O)cc1)CN(CC)C2	–	–
Active	C=C1[C@@H]2CCC[C@@]1(COC(=O)c1ccccc1-c1cccc(NC(C)=O)c1)CN(CC)C2	–	–

The next lines start with the compound.

Compound	inhibition [1]	inhibition [2]	further results
CCN1C[C@]2(COC(=O)c3ccccc3N3C(=O)C[C@H](C)C3=O)CC[C@H](OC)[C@]34C1[C@@](O)([C@@H](OC)[C@H]23)[C@@]1(O)C[C@H](OC)[C@H]2C[C@@H]4[C@@H]1[C@H]2OC	95%	Active	logIC50 [3]: -1.1; logIC50 [4]: -0.8; inhibition [5]: Active
C=C1[C@@H]2CCC[C@@]1(COC(=O)c1ccccc1-c1ccc(NC(C)=O)cn1)CN(CC)C2	60%	Active	IC50 [3]: 4.1 µM; logIC50 [3]: 0.6; IC50 [4]: 29.1 µM; logIC50 [4]: 1.5; inhibition [5]: Active
C=C1[C@@H]2CCC[C@@]1(COC(=O)c1ccccc1-c1cccc(NC(C)=O)n1)CN(CC)C2	80%	Active	IC50 [3]: 4.9 µM; logIC50 [3]: 0.7; IC50 [4]: 27.3 µM; logIC50 [4]: 1.4; inhibition [5]: Active
C=C1[C@@H]2CCC[C@@]1(COC(=O)c1ccccc1-c1cc(NC(C)=O)ccn1)CN(CC)C2	80%	Active	IC50 [3]: 3.9 µM; logIC50 [3]: 0.6; IC50 [4]: 15 µM; logIC50 [4]: 1.2; inhibition [5]: Active
C=C1[C@@H]2CCC[C@@]1(COC(=O)c1ccccc1-c1ccccn1)CN(CC)C2	50%	Active	–
C=C1[C@@H]2CCC[C@@]1(COC(=O)c1ccccc1N1C(=O)CC(C)C1=O)CN(CC)C2 (stereo partly specified)	–	–	IC50 [6]: 20.7 µM; IC50 [7]: 4.66 µM
